Laboratory results as given in patent publication US20110098296A1, “Thiazole And Oxazole Kinase Inhibitors” (priority 2007, published 2011).
pIC50: −log10 of the molar value.

Columns and labels:
A375P F11s tumor cells = test: Method C: Cell Growth Inhibition Assay (CellTiter-Glo), A375P F11s; format: cell-based; settings: Homo sapiens, 72 h, 3 days, 4-parameter fit
Procedure, shortened: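 500 cells/well; next-day compound, 1:3 serial dilutions, 0.2% DMSO final; 3 d, 37° C, 5% CO2. Readout: CellTiter-Glo luminescence (total ATP as cell-number surrogate). IC50 from 4-parameter fit of % growth inhibition vs vehicle.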

BT474 tumor cells = test: Method C: Cell Growth Inhibition Assay (CellTiter-Glo), BT474; format: cell-based; settings: Homo sapiens, BT-474, 72 h, 3 days, 4-parameter fit
SK-MEL-3 tumor cells = test: Method C: Cell Growth Inhibition Assay (CellTiter-Glo), SK-MEL-3; format: cell-based; settings: Homo sapiens, SK-MEL3, 72 h, 3 days, 4-parameter fit
Procedure, shortened: (§1)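 Cells plated at 500 cells/well, dosed next day with 10-point 1:3 dilution series (0.2% final DMSO) and grown 3 days at 37 °C, 5% CO2. CellTiter-Glo luminescence (total ATP) served as cell-number surrogate; inhibition relative to DMSO controls, IC50 interpolated by 4-parameter fit.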

B-Raf = B-Raf (Homo sapiens, UniProt P15056); test: B-Raf Accelerated MEK ATPase assay (BRAMA); format: biochemical; settings: Method (A): BRAMA, kinetic read
Method: Compounds of the present invention were tested for B-Raf protein serine kinase inhibitory activity in a B-Raf Accelerated MEK ATPase assay (BRAMA). The BRAMA assay is a high sensitivity assay which measures an intrinsic MEK-mediated ATP hydrolysis uncoupled from downstream ERK phosphorylation by coupling the formation of ADP to NADH oxidation through the enzymes pyruvate kinase and lactate dehydrogenase. When ADP production is initiated by addition of catalytic amounts of an activated Raf enzyme and non-phosphorylated MEK, one observes robust ADP production concomitant with Raf-mediated phosphorylation of MEK.
Method A: Specific details of the assay are disclosed in: C. Rominger, M. Schaber, E. May. Assay for B-Raf Activity Based on Intrinsic MEK ATPase Activity. Statutory Invention Registration Ser. No. 11/084,993 (March, 2005). Method B: The method is the same as method A, but includes the following changes: 1) the assay was performed with a final MEK concentration of 150 nM and 2) the assay was read as single end point instead of a kinetic read.

Colo205 tumor cells = test: Method C: Cell Growth Inhibition Assay (CellTiter-Glo), Colo205; format: cell-based; settings: Homo sapiens, COLO 205, 72 h, 3 days, 4-parameter fit
Procedure, shortened: as §1

Sequence of B-Raf (P15056 whole entry): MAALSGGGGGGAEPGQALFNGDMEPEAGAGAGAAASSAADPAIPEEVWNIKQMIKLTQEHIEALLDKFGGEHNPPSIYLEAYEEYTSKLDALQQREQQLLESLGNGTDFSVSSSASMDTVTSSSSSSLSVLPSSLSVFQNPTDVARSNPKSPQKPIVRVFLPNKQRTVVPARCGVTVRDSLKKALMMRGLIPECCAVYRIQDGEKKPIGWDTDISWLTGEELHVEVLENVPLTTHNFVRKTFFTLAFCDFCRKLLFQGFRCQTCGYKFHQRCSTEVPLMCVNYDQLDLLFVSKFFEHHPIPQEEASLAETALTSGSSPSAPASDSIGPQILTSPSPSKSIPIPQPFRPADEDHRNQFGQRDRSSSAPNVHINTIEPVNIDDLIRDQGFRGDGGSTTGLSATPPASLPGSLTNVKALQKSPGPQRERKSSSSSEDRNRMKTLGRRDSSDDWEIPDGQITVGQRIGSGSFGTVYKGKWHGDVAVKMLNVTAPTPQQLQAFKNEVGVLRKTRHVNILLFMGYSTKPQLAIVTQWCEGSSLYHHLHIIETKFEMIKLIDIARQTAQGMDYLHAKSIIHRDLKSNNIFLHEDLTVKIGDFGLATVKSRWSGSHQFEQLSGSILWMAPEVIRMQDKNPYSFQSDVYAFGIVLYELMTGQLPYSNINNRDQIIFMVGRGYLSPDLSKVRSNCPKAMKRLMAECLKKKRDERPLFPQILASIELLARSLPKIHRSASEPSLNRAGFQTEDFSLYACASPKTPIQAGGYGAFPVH

SMILES	pIC50 (A375P F11s tumor cells)	pIC50 (BT474 tumor cells)	pIC50 (SK-MEL-3 tumor cells)	pIC50 (B-Raf)	pIC50 (Colo205 tumor cells)
Nc1nc(-c2cccc(C(=O)Nc3c(F)cccc3F)c2)c(-c2ccnc(Nc3cccc(CN4CCCC4)c3)n2)s1 [Example 77, 3-[2-Amino-5-(2-{[3-(1-pyrrolidinylmethyl)phenyl]amino}-4-pyrimidinyl)-1,3-thiazol-4-yl]-N-(2,6-difluorophenyl)benzamide]	6.00 to 7.00	6.00 to 7.00	> 7.00	–	–
Cc1cc(-c2sc(N)nc2-c2cccc(NC(=O)c3c(F)cccc3F)c2)nc(Nc2cccc(F)c2)n1 [Example 48, N-[3-(2-Amino-5-{2-[(3-fluorophenyl)amino]-6-methyl-4-pyrimidinyl}-1,3-thiazol-4-yl)phenyl]-2,6-difluorobenzamide]	–	< 6.00	–	< 6.00	< 6.00
COc1ccc(Nc2nccc(-c3sc(N)nc3-c3cccc(NC(=O)c4c(F)cccc4F)c3)n2)cc1N1CCNCC1 [Example 18, N-[3-(2-Amino-5-{2-[(4-methoxy-3-piperaziN-1-ylphenyl)amino]pyrimidiN-4-yl}-1,3-thiazol-4-yl)phenyl]-2,6-difluorobenzamide]	–	6.00 to 7.00	–	–	< 6.00
Cc1nc(-c2cccc(NC(=O)c3c(F)cccc3F)c2)c(-c2ccnc(Nc3ccc(OCCN(C)C)c(Cl)c3)n2)s1 [Example 103, N-[3-(5-{2-[(3-Chloro-4-{[2-(dimethylamino)ethyl]oxy}phenyl)amino]-4-pyrimidinyl}-2-methyl-1,3-thiazol-4-yl)phenyl]-2,6-difluorobenzamide]	–	> 7.00	–	–	–
CCNc1nc(-c2cccc(NC(=O)C3CC3)c2)c(-c2ccnc(Nc3ccc(OCCN4CCCC4)c(Cl)c3)n2)s1 [Example 63, N-{3-[5-{2-[(3-Chloro-4-{[2-(1-pyrrolidinyl)ethyl]oxy}phenyl)amino]-4-pyrimidinyl}-2-(ethylamino)-1,3-thiazol-4-yl]phenyl}cyclopropanecarboxamide]	6.00 to 7.00	6.00 to 7.00	6.00 to 7.00	–	–

Results, then the molecule that gave them:

pIC50 (A375P F11s tumor cells)	pIC50 (BT474 tumor cells)	pIC50 (SK-MEL-3 tumor cells)	pIC50 (B-Raf)	pIC50 (Colo205 tumor cells)	SMILES
< 6.00	6.00 to 7.00	6.00 to 7.00	6.00 to 7.00	6.00 to 7.00	CCc1nc(-c2cccc(NC(=O)c3c(F)cccc3F)c2)c(-c2ccnc(Nc3cccc(CN4CCCC4)c3)n2)s1 [Example 115, N-{3-[2-Ethyl-5-(2-{[3-(1-pyrrolidinylmethyl)phenyl]amino}-4-pyrimidinyl)-1,3-thiazol-4-yl]phenyl}-2,6-difluorobenzamide]
–	> 7.00	–	–	–	COc1cc(Nc2nccc(-c3sc(N)nc3-c3cccc(NC(=O)c4c(F)cccc4F)c3)n2)cc(OC)c1OC [Example 16, N-[3-(2-Amino-5-{2-[(3,4,5-trimethoxyphenyl)amino]pyrimidiN-4-yl}-1,3-thiazol-4-yl)phenyl]-2,6-difluorobenzamide]
–	< 6.00	–	6.00 to 7.00	< 6.00	Cc1nc(-c2cccc(NC(=O)c3c(F)cccc3F)c2)c(-c2ccnc(Nc3ccc(OC4CCN(C(=O)OCc5ccccc5)CC4)c(F)c3)n2)s1 [Example 106]
